Data on five compounds can be found in patent US20250320193A1, “OXOISOINDOLINYL SUBSTITUTED PIPERIDINEDIONE DERIVATIVE AND USE THEREOF” (GLUETACS THERAPEUTICS (SHANGHAI) CO., LTD., priority 2022, published 2025).

Where only a bound is given, the exact number is not on record here.

Test [1] deals with human Cereblon WT GST-tagged protein (Homo sapiens (Human), UniProt Q96SW2). Briefly: CRBN-binding affinity, HTRF (CEREBLON BINDING kit, CISBIO). Conditions: HTRF inhibitory activity. Put shortly:
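Compounds were mixed with GST-tagged human Cereblon WT protein, then with Thalidomide-Red tracer and GST Eu antibody, and binding was read by HTRF. Inhibition rate was calculated from 620 nm emission relative to blank control wells (no protein) and solvent control wells.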
Background: In TR-FRET formats the signal depends on donor and acceptor labels being close together.

The next test has as its target IKZF1 (Homo sapiens (Human), UniProt Q13422+Q96SW2). Briefly: Western blot, substrate protein expression in hPBMC: IKZF1. The class given is cell-based. Conditions: hPBMC, compound 500 nM, 24 hours, Western blot. Put shortly: (§1)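 hPBMC, 1×10^6 cells/mL, 24 h compound exposure; RIPA lysis, BCA protein assay, SDS-PAGE, NC membrane immunoblot. Densitometry vs internal control → % protein remaining; degradation % = 100% − remaining; DC50 = conc. at 50% of DMSO band signal.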
Background: In western blotting, separated proteins are transferred to a membrane and probed.

The target in the next test is IKZF3 (Homo sapiens (Human), UniProt Q96SW2+Q9UKT9). In words: Western blot, substrate protein expression in hPBMC: IKZF3. The class given is cell-based. The conditions noted are these: hPBMC, compound 500 nM, 24 hours, Western blot. Put shortly: as §1
Another test has as its target GSPT1 (Homo sapiens (Human), UniProt P15170+Q96SW2). Briefly: Western blot, substrate protein expression in hPBMC: GSPT1. The class given is cell-based. The conditions noted are these: hPBMC, compound 500 nM, 24 hours, Western blot. Put shortly: as §1
Test [2] concerns H146 cells (human small cell lung carcinoma cells). Briefly: Tumor cell proliferation inhibition, CCK-8. It counts as cell-based. Conditions: NCI-H146, H146 cells, CCK-8, read-out: inhibitory activity (IC50, nM) H146. Here is the method:
(§2) The tumor cells used herein were cultured in a cell culture medium listed in table 2 at 37° C. in an incubator with 5% CO2. Prior to experimentation, all cells used were correctly identified by STR profiling, and tested negative for mycoplasma through routine screenings.
(§3) IC50 values of the compounds of the present disclosure (including the compounds in Table 1 and the Examples 1-305 compounds) were measured using the Meilun Cell Counting Kit-8 kit from Dalian Meilun Biotech Co., Ltd. Assay details are as follows: tumor cells were seeded in a 96-well plate at a density listed in Table 5. After 24 h, 100 μL of the inoculated cells were treated with 0.5 μL of the compounds of the present disclosure (including the compounds in Table 1 and the Examples 1-305 compounds) at 10 different successively decreasing concentrations (starting at the highest concentration of 10 μM; 5-fold serial dilutions). After the cells were treated with the compounds of the present disclosure for a period of time, the cell viability detection reagent was added to the culture medium for cell viability assessment according to the instructions provided with the CCK-8 kit. […] The growth inhibition of the compounds of the present disclosure on cells was plotted by Prism Graphpad software, and the IC50 values of the compounds of the present disclosure were calculated therefrom.

Test [3] has as its system MDA-MB-231 cells (human breast adenocarcinoma cells). In words: Tumor cell proliferation inhibition, CCK-8. The class given is cell-based. Conditions: MDA-MB-231 cells, CCK-8, read-out: inhibitory activity (IC50, nM) MDA-MB-231. As for the experimental part:
as §2, §3

Test [4] deals with MM.1S cells (human multiple myeloma cells). In words: Tumor cell proliferation inhibition, CCK-8. It counts as cell-based. The conditions noted are these: MM1.S, MM.1S cells, CCK-8, read-out: inhibitory activity (IC50, nM) MM.1S. Here is the method:
as §2, §3

Test [5] has as its system TMD8 cells (human diffuse large B-cell lymphoma cells). In words: Tumor cell proliferation inhibition, CCK-8. The class given is cell-based. The conditions noted are these: TMD8 cells, CCK-8, read-out: inhibitory activity (IC50, nM) TMD8. Here is the method: as §2, §3

Sequence of human Cereblon WT GST-tagged protein (Q96SW2 whole entry): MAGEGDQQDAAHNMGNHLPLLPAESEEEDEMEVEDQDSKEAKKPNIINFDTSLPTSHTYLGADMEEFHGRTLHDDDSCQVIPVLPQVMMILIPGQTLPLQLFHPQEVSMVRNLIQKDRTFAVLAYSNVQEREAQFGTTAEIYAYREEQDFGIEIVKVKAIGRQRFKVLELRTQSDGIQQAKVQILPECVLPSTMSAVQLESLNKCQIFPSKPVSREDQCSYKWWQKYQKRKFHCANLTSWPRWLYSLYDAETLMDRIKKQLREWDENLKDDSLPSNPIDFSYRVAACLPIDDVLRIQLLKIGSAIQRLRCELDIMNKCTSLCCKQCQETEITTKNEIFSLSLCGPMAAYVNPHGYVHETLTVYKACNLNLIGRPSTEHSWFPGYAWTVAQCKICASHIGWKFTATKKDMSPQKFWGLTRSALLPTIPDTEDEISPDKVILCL
Sequence of IKZF1 (Q13422 whole entry): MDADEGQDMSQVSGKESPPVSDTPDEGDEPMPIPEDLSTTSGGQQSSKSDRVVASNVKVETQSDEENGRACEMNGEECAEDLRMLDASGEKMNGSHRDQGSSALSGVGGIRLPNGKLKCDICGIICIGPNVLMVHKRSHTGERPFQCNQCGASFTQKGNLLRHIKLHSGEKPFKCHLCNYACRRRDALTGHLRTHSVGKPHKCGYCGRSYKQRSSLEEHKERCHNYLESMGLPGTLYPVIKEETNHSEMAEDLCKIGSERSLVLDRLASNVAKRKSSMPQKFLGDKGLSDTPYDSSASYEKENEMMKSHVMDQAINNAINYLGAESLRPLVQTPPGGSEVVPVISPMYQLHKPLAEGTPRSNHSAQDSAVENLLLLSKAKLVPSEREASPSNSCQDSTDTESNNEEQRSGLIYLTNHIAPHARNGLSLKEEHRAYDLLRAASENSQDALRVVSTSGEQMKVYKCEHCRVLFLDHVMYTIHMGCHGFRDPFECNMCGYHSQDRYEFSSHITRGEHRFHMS
Sequence of IKZF1 (Q96SW2 whole entry): as the sequence (Q96SW2 whole entry) above
Sequence of IKZF1 (Q16531 whole entry partner): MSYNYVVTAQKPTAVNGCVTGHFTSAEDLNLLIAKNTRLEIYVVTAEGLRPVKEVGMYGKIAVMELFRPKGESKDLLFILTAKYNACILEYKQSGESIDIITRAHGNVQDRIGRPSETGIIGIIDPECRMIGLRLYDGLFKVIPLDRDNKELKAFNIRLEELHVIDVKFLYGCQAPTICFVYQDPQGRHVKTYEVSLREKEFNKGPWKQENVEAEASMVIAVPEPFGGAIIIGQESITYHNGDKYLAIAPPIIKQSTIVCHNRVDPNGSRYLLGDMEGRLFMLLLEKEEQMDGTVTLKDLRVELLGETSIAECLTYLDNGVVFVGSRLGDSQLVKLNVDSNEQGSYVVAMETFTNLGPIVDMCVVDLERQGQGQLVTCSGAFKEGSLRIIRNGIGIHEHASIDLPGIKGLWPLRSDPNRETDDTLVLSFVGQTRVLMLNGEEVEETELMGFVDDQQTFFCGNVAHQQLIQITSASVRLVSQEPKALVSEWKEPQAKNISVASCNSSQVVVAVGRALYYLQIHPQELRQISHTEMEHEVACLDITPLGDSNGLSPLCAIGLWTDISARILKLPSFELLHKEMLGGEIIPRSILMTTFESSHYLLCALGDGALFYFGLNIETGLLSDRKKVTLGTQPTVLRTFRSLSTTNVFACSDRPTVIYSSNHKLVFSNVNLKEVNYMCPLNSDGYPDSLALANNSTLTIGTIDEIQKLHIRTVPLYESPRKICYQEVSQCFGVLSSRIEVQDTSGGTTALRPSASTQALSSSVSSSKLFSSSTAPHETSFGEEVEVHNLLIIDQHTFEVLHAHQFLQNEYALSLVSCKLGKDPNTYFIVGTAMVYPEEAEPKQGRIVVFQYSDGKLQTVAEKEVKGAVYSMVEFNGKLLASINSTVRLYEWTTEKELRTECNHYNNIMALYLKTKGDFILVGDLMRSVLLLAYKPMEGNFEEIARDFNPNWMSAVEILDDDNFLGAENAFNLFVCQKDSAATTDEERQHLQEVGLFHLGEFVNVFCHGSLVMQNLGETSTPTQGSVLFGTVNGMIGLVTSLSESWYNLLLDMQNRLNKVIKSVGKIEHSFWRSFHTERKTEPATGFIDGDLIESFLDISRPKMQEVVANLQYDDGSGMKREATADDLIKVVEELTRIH
Sequence of GSPT1 (P15170 whole entry): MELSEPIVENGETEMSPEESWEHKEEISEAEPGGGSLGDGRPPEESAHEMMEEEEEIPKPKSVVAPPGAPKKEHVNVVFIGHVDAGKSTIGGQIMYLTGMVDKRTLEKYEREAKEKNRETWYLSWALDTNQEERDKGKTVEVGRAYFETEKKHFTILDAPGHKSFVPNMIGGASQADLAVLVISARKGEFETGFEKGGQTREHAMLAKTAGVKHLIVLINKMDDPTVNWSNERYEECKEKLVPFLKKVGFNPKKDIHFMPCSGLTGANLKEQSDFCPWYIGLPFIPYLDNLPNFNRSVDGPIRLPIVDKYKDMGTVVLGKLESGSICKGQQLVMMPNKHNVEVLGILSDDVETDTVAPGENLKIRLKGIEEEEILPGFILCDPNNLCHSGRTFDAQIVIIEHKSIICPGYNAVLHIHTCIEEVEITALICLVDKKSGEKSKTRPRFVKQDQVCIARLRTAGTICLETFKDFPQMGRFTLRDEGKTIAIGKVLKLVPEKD
Sequence of GSPT1 (Q96SW2 whole entry): as the sequence (Q96SW2 whole entry) above
Sequence of GSPT1 (Q16531 whole entry partner): as the sequence (Q16531 whole entry partner) above
Sequence of IKZF3 (Q9UKT9 whole entry): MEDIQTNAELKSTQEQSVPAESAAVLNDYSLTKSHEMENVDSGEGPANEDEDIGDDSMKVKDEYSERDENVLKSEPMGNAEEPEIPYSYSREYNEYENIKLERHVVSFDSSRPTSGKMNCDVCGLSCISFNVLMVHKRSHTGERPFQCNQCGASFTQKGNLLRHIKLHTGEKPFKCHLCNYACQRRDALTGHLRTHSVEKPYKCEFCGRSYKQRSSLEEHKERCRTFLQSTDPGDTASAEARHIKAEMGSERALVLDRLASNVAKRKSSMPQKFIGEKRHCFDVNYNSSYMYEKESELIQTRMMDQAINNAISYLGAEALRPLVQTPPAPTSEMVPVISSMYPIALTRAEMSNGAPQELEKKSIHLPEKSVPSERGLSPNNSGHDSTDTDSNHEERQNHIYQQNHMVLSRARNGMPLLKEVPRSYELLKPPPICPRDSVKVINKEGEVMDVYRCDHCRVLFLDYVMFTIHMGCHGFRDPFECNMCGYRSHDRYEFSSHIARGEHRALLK
Sequence of IKZF3 (Q96SW2 whole entry): as the sequence (Q96SW2 whole entry) above
Sequence of IKZF3 (Q16531 whole entry partner): as the sequence (Q16531 whole entry partner) above

Consider `O=C1CCC(N2Cc3c(ccc(CN4CCN(C(c5ccccc5F)c5ccccc5F)CC4)c3F)C2=O)C(=O)N1` (stereo not shown) [GT-06085, 3-(5-((4-(bis(2-fluorophenyl)methyl)piperazin-1-yl)methyl)-4-fluoro-1-oxoisoindolin-2-yl)piperidine-2,6-dione], for which the IC50 (usually the concentration that gives 50% inhibition) in test [1] is 0.5 to 1 µM; in test [2] it was 10 to 50 nM; in test [3] it was 10 to 50 nM; in test [4] it was 1 to 10 nM; in test [5], 10 to 50 nM. The “substrate protein remaining % IKZF1” value on IKZF1 is given as “A (A represents 0% ≤ substrate protein remaining % ≤ 50%)”. The “substrate protein remaining % IKZF3” value on IKZF3 is given as “A (A represents 0% ≤ substrate protein remaining % ≤ 50%)”. Besides, at GSPT1, the “substrate protein remaining % GSPT1” value was “A (A represents 0% ≤ substrate protein remaining % ≤ 50%)”.

For `O=C1CCC(N2Cc3cc(CN4CCN(C(c5ccccc5F)c5ccccc5F)CC4)c(F)cc3C2=O)C(=O)N1` (stereo not shown) [GT-06086, 3-(5-((4-(bis(2-fluorophenyl)methyl)piperazin-1-yl)methyl)-6-fluoro-1-oxoisoindolin-2-yl)piperidine-2,6-dione], the IC50 in test [1] was 0.5 to 1 µM; in test [2], 10 to 50 nM; in test [3] it was 10 to 50 nM; in test [4] it was 1 to 10 nM; in test [5], 10 to 50 nM. Moreover, the “substrate protein remaining % IKZF1” value at IKZF1 is reported as “A (A represents 0% ≤ substrate protein remaining % ≤ 50%)”. The “substrate protein remaining % IKZF3” value at IKZF3 is “A (A represents 0% ≤ substrate protein remaining % ≤ 50%)”. Also, the “substrate protein remaining % GSPT1” value at GSPT1 is given as “A (A represents 0% ≤ substrate protein remaining % ≤ 50%)”.

In the case of `O=C1CCC(N2Cc3cc(CN4CCN(C(c5ccccc5F)c5ccccc5F)CC4)cc(F)c3C2=O)C(=O)N1` (stereo not shown) [GT-06087, 3-(5-((4-(bis(2-fluorophenyl)methyl)piperazin-1-yl)methyl)-7-fluoro-1-oxoisoindolin-2-yl)piperidine-2,6-dione], the IC50 in test [1] was under 0.5 µM; in test [2], 50 to 100 nM; in test [3] it was 100 to 500 nM; in test [4], 10 to 50 nM; in test [5], 100 to 500 nM. In addition, the “substrate protein remaining % IKZF1” value at IKZF1 is on record as “B (B represents substrate protein remaining % > 50%)”. The “substrate protein remaining % IKZF3” value on IKZF3 is reported as “B (B represents substrate protein remaining % > 50%)”. The “substrate protein remaining % GSPT1” value at GSPT1 is listed as “A (A represents 0% ≤ substrate protein remaining % ≤ 50%)”.

With `O=C1CCC(N2Cc3cc(C(=O)N4CCN(C(c5cccc(F)c5)c5cccc(F)c5)CC4)ccc3C2=O)C(=O)N1` (stereo not shown) [GT-06146, 3-(5-(4-(bis(3-fluorophenyl)methyl)piperazine-1-carbonyl)-1-oxoisoindolin-2-yl)piperidine-2,6-dione], the IC50 in test [1] was under 0.5 µM; in test [2], 100 to 500 nM; in test [3], 100 to 500 nM; in test [4] it was 10 to 50 nM; in test [5], 500 to 1000 nM. Moreover, at IKZF1, the “substrate protein remaining % IKZF1” value is given as “A (A represents 0% ≤ substrate protein remaining % ≤ 50%)”. Further, at IKZF3, the “substrate protein remaining % IKZF3” value is reported as “A (A represents 0% ≤ substrate protein remaining % ≤ 50%)”. Moreover, the “substrate protein remaining % GSPT1” value on GSPT1 is “A (A represents 0% ≤ substrate protein remaining % ≤ 50%)”.

On to `O=C1CCC(N2Cc3cc(CN4CCN(C(c5cc(F)cc(F)c5)c5cc(F)cc(F)c5)CC4)ccc3C2=O)C(=O)N1` (stereo not shown) [GT-06387, 3-(5-((4-(bis(3,5-difluorophenyl)methyl)piperazin-1-yl)methyl)-1-oxoisoindolin-2-yl)piperidine-2,6-dione], for which the IC50 in test [1] is 1 to 1.9 µM; in test [2], 1 to 10 nM; in test [3], 1 to 10 nM; in test [4], under 1 nM; in test [5] it was 1 to 10 nM. In addition, the “substrate protein remaining % IKZF1” value on IKZF1 is “B (B represents substrate protein remaining % > 50%)”. Also, the “substrate protein remaining % IKZF3” value at IKZF3 was “A (A represents 0% ≤ substrate protein remaining % ≤ 50%)”. Besides, on GSPT1, the “substrate protein remaining % GSPT1” value is listed as “A (A represents 0% ≤ substrate protein remaining % ≤ 50%)”.
